Data on one compound can be found in US20240124528A1, “ANTAGONIST OF INTERLEUKIN-17B RECEPTOR (IL-17RB) AND USE THEREOF” (Academia Sinica, priority 2020, published 2024).

“Also recorded” adds a separate entry of the source.

Type in all cases: cell-based, human
The test system of assay [1] is pancreatic cancer cells (AsPC1 and BxPC3) and breast cancer cells (MB361 and MB468). The experiment in a line: SACF assay with CEP-1347. The protocol:
(§1) FIGS. 15A to 15D include charts showing that CEP-1347 inhibits IL-17RB Y447 phosphorylation, ERK1/2 phosphorylation, and aggressiveness of both pancreatic and breast cancer cells. Pancreatic cancer cells (AsPC1 and BxPC3) and breast cancer cells (MB361 and MB468) were transduced with lentiviral shLacZ (control) and lentiviral shMLK4, separately. In comparison to MLK4-knockdown cells, shLacZ-transduced cancer cells were pretreated with CEP-1347 (200 nM), a non-selective inhibitor of MLKs, before adding 50 ng/ml rIL-17B in serum-free conditions for 30 mins. The cell lysates were immunoblotted directly with the indicated antibodies (FIG. 15A). The same cells were measured by RT-qPCR for the cytokine gene expression (n=3) (FIG. 15B), for SACF assay (n=4) (FIG. 15C), and for invasion assay (n=4) (FIG. 15D). All the data are mean±s.d. *P<0.05, **P<0.01 by two-tailed Student's t-test.
Soft agar colony formation assay was performed as described (7). Briefly, 250010000 cells were seeded in a layer of 0.35% agar/complete growth medium over a layer of 0.5% agar/complete growth medium in a 12-well plate. Cell medium containing the indicated concentration of rIL-17B (R&D), DMSO (Sigma-Aldrich), or CEP-1347 (Tocris Bioscience) was replenished every three days. […] Crystal violet-stained colonies greater than 50 μm in size were counted and analyzed objectively by light microscopy.

For assay [2] the test system is unchanged. The experiment in a line: RT-qPCR of cytokine gene expression after CEP-1347. The note with it: CEP-1347 200 nM. The protocol: as §1, with “All the data are mean±s.d. *P<0.05, **P<0.01 by two-tailed Student's t-test.” left out
Total RNA from cultured cells and tumor tissue was isolated using Trizol reagent (Thermo Fisher Scientific) and reversely transcribed with Transcriptor First Strand cDNA Synthesis Kit (Roche Life Science) for gene expression analysis according to manufacturer's instructions. Quantitative real-time RT-PCR assay was run on the StepOnePlus system (Applied Biosystems) using KAPA SYBR FAST qPCR Kit (Kapa Biosystems) according to manufacturer's instructions, and data was analyzed by StepOne Software v2.2.2. β-actin mRNA was used as an internal control. […]
Background: Real-time PCR tracks product formation cycle by cycle.

Assay [3] shares this test system. Description: Invasion assay with CEP-1347. The protocol: as §1
For invasion assay, about 10^4 cells were seeded in the top chamber with Matrigel-coated membrane (24-well BD Falcon HTS Fluoro Block insert; pore size, 8 μm; BD Biosciences) in serum-free media containing rIL-17B, DMSO, or CEP-1347. Medium supplemented with 10% serum was used as a chemoattractant in the lower chamber. After 24- or 48 hrs incubation, the invading cells were fixed with methanol, stained with 4,6-diamidino-2-phenylindole (DAPI) and counted by fluorescence microscopy.

In assay [4] the test system is MLKs. Description: Immunoblotting of IL-17B-induced phosphorylation after CEP-1347 pretreatment. To be noted: CEP-1347 200 nM pretreatment, then 50 ng/ml rIL-17B 30 mins; AsPC1, BxPC3, MB361, MB468. The protocol: as §1
Immunoblotting analysis was performed after proteins were separated by gradient SDS-PAGE (HR gradient gel solution, TFUGG420, TOOLS) and transferred to PVDF membrane, with overnight incubation with diluted primary antibody followed by diluted horseradish peroxidase-conjugated anti-rabbit, anti-mouse or anti-goat antibody (Jackson ImmunoResearch) as described (48-50). […] Optical density was determined using the National Institutes of Health ImageJ program.
Background: A western blot detects proteins with antibodies after separation by electrophoresis.

For the compound `CCSCc1ccc2c(c1)c1c3c(c4c5cc(CSCC)ccc5n5c4c1n2[C@H]1C[C@](O)(C(=O)OC)[C@]5(C)O1)CNC3=O` [CEP-1347], the “aggressiveness of both pancreatic and breast cancer cells” value in assay [1] (CEP-1347 200 nM, SACF and invasion assays) is given as “inhibits”. Besides, in assay [1] (CEP-1347, AsPC1, BxPC3, MB361, MB468), the colony formation entry is on record as “abrogated”. For the same compound, the cytokine gene expressions entry in assay [2] is recorded as “abrogated”. The “invasion properties of the cancer cells” value in assay [3] is recorded as “abrogated”. In assay [4], the ERK1/2 phosphorylation entry is recorded as “abrogated; also recorded: inhibits” and the “IL-17RB (Y447) phosphorylation” value is given as “abrogated; also recorded: inhibits”.
